Measured values published in ChEMBL document CHEMBL2146463, “Apoptosis-inducing effects of distichamine and narciprimine, rare alkaloids of the plant family Amaryllidaceae” (Bioorg Med Chem Lett, 2012).
pEC50, pIC50: −log10 of the molar value. Active and inactive are the calls of the source. The calls are words filed in the database; no cut-off is given here.

Legend:
[1] = system: MCF7; assay: Cytotoxicity against human MCF7 cells; type: functional, cell-based
[2] = system: CCRF-CEM; assay: Cytotoxicity against human CEM cells after 72 hrs by Calcein AM assay; type: functional, cell-based
[3] = system: K562; assay: Cytotoxicity against human K562 cells after 72 hrs by Calcein AM assay; type: functional, cell-based; conditions: K562, 72 h
[4] = system: MCF7; assay: Cytotoxicity against human MCF7 cells after 72 hrs by Calcein AM assay; type: functional, cell-based; conditions: MCF7, 72 h
[5] = system: HeLa; assay: Cytotoxicity against human HeLa cells after 72 hrs by Calcein AM assay; type: functional, cell-based
[6] = system: G-361; assay: Cytotoxicity against human G361 cells after 72 hrs by Calcein AM assay; type: functional, cell-based; conditions: G-361, 72 h
[7] = system: BJ; assay: Cytotoxicity against human BJ cells after 72 hrs by Calcein AM assay
[8] = Induction of apoptosis in rat 5123TC cells after 48 hrs; type: functional; conditions: read-out: ED50 (the source's name)
[9] = Induction of apoptosis in rat 5123TC cells assessed as apoptotic index at 25 uM after 48 hrs; type: functional
[10] = system: CCRF-CEM; assay: Induction of apoptosis in human CEM cells assessed decrease level of Mcl-1 at 1 to 20 uM after 24 hrs by Western Blot analysis; type: functional, cell-based
[11] = system: CCRF-CEM; assay: Induction of apoptosis in human CEM cells assessed as increase cleavage of PARP at 1 to 20 uM after 24 hrs by Western Blot analysis; type: functional, cell-based
[12] = system: CCRF-CEM; assay: Induction of apoptosis in human CEM cells assessed increase in expression of p53 after 24 hrs by Western Blot analysis; type: functional, cell-based
[13] = system: CCRF-CEM; assay: Induction of apoptosis in human CEM cells assessed as decrease level of procaspase-3 at 1 to 20 uM after 24 hrs by Western Blot analysis; type: functional, cell-based
[14] = system: CCRF-CEM; assay: Cell cycle arrest in human CEM cells assessed as increase accumulation at G2/M phase after 24 hrs by FACS analysis; type: functional, cell-based
[15] = system: CCRF-CEM; assay: Cell cycle arrest in human CEM cells assessed as decrease accumulation at G0/G1 phase at 1 to 20 uM after 24 hrs by FACS analysis; type: functional, cell-based
[16] = system: CCRF-CEM; assay: Cell cycle arrest in human CEM cells assessed as decrease accumulation at S phase at 1 to 20 uM after 24 hrs by FACS analysis; type: functional, cell-based
[17] = system: CCRF-CEM; assay: Cell cycle arrest in human CEM cells assessed as accumulation at sub-G1 phase at 20 uM after 24 hrs by FACS analysis relative to control; type: functional, cell-based
[18] = system: CCRF-CEM; assay: Induction of apoptosis in human CEM cells assessed as increase in activity of caspases-3/7 at 20 uM after 24 hrs by fluorescence analysis relative to control; type: functional
[19] = system: CCRF-CEM; assay: Induction of apoptosis in human CEM cells assessed activity of Bcl-2 at 1 to 20 uM after 24 hrs by Western Blot analysis; type: functional, cell-based
[20] = system: NCI-H460; assay: Cytotoxicity against human NCI-H460 cells by MTT assay; type: functional, cell-based
[21] = system: CCRF-CEM; assay: Induction of apoptosis in human CEM cells assessed as decrease level of procaspase-3 at 10 uM after 24 hrs by Western Blot analysis; type: functional, cell-based
[22] = system: CCRF-CEM; assay: Induction of apoptosis in human CEM cells assessed as increase cleavage of PARP at 20 uM after 24 hrs by Western Blot analysis; type: functional, cell-based
[23] = system: CCRF-CEM; assay: Cell cycle arrest in human CEM cells assessed as accumulation at sub-G1 phase at 1 to 20 uM after 24 hrs by FACS analysis relative to control; type: functional
[24] = system: CCRF-CEM; assay: Induction of apoptosis in human CEM cells assessed as increase cleavage of PARP at 10 uM after 24 hrs by Western Blot analysis; type: functional, cell-based
[25] = system: CCRF-CEM; assay: Induction of apoptosis in human CEM cells assessed as decrease level of procaspase-3 at 20 uM after 24 hrs by Western Blot analysis; type: functional, cell-based
[26] = system: CCRF-CEM; assay: Induction of apoptosis in human CEM cells assessed increase in expression of p53 at 10 uM after 24 hrs by Western Blot analysis; type: functional, cell-based
[27] = system: CCRF-CEM; assay: Induction of apoptosis in human CEM cells assessed increase in expression of p53 at 20 uM after 24 hrs by Western Blot analysis; type: functional, cell-based
[28] = system: CCRF-CEM; assay: Induction of apoptosis in human CEM cells assessed decrease level of Mcl-1 at 20 uM after 24 hrs by Western Blot analysis; type: functional, cell-based
[29] = system: CCRF-CEM; assay: Induction of apoptosis in human CEM cells assessed as […] after 24 hrs by Western Blot analysis; type: functional, cell-based
[30] = system: CCRF-CEM; assay: Induction of apoptosis in human CEM cells assessed as decrease level of procaspase-3 after 24 hrs by Western Blot analysis; type: functional, cell-based

## O=C1N[C@@H]2C(=C[C@H](O)[C@@H](O)[C@H]2O)c2cc3c(c(O)c21)OCO3 [NARCICLASINE]
[1]
  pIC50: 8.00

## CO[C@@H]1C=C[C@@]23c4cc5c(cc4CN(C[C@@H]2O)[C@H]3C1)OCO5 [(+)-HAEMANTHAMINE]
[2]
  pIC50: 5.68
[3]
  pIC50: 5.47
[4]
  pIC50: 5.09
[5]
  pIC50: 5.15
[6]
  pIC50: 5.43
[7]
  pIC50: 5.57
[8]
  pEC50: 4.82
[9]
  Activity: 90%

## O=c1[nH]c2c(O)cccc2c2cc3c(c(O)c12)OCO3 [NARCIPRIMINE]
[10]
  Activity: inactive
[11]
  Activity: inactive
[12]
  Activity: Dose-dependent effect
[13]
  Activity: inactive
[2]
  pIC50: 4.88
[3]
  pIC50: < 4.30
[4]
  pIC50: < 4.30
[5]
  pIC50: < 4.30
[6]
  pIC50: < 4.30
[7]
  pIC50: 5.10
[14]
  Activity: Dose-dependent effect
[15]
  Activity: Active
[16]
  Activity: Active
[17]
  Activity: Active
[18]
  fold change (FC): 1.8
[19]
  Activity: inactive

## O[C@H]1[C@H]2c3cc4c(cc3CN3CCC(=C[C@@H]1O)[C@H]23)OCO4 [LYCORINE]
[2]
  Activity: Dose-dependent effect
  pIC50: 5.80
[3]
  pIC50: 5.44
[4]
  pIC50: 4.89
[5]
  pIC50: 4.97
[6]
  pIC50: 5.30
[7]
  pIC50: 5.72

## O=C(O[C@H]1[C@H](O)[C@@H](O)[C@@H](O)[C@@H]2NC(=O)c3c(cc4c(c3O)OCO4)[C@H]21)c1ccccc1 [PHENPANSTATIN]
[20]
  pIC50: 9.64

## COC1=CC(=O)[C@@]23CCN(Cc4c2cc2c(c4OC)OCO2)[C@@H]3C1 [DISTICHAMINE]
[12]
  Activity: Dose-dependent effect
[2]
  pIC50: 5.35
[21]
  Activity: Active
[22]
  Activity: Active
[3]
  pIC50: 5.39
[4]
  pIC50: 5.64
[5]
  pIC50: 5.66
[6]
  pIC50: 4.83
[7]
  pIC50: 4.98
[23]
  Activity: 23.7%
[14]
  Activity: Dose-dependent effect
[15]
  Activity: Active
[16]
  Activity: Active
[18]
  fold change (FC): 12.5
[24]
  Activity: Active
[25]
  Activity: Active
[26]
  Activity: Active
[27]
  Activity: Active
[19]
  Activity: inactive
[28]
  Activity: Active
[29]
  Activity: Dose-dependent effect
[30]
  Activity: Dose-dependent effect

## COc1c2c(cc3c1OCO3)[C@]13C=C[C@H](OC)C[C@H]1N(CC3)C2 [BUPHANIDRINE]
[2]
  pIC50: < 4.30
[3]
  pIC50: < 4.30
[4]
  pIC50: < 4.30
[5]
  pIC50: < 4.30
[6]
  pIC50: < 4.30
[7]
  pIC50: 4.58

## CO[C@H]1C=C[C@@]23c4cc5c(cc4CN(C[C@@H]2O)[C@H]3C1)OCO5
[8]
  pEC50: 4.90
[9]
  Activity: 90%

## COc1ccc2c3c1O[C@H]1C[C@@H](O)CC[C@]31CCN(C)C2 [LYCORAMINE]
[2]
  pIC50: < 4.30
[3]
  pIC50: < 4.30
[4]
  pIC50: < 4.30
[5]
  pIC50: < 4.30
[6]
  pIC50: < 4.30
[7]
  pIC50: < 4.30

## COc1cc2c(cc1OC)[C@H]1[C@H]3C(=CC[C@H]1OC2=O)CCN3C [HOMOLYCORINE]
[2]
  pIC50: 4.82
[3]
  pIC50: 4.71
[4]
  pIC50: < 4.30
[5]
  pIC50: < 4.30
[6]
  pIC50: 4.48
[7]
  pIC50: 4.68

## COc1c2c(cc3c1[C@@H](O)N1CC[C@]34[C@H]3O[C@H]3[C@H](OC)C[C@@H]14)OCO2
[9]
  Activity: 25%

## COc1ccc2c3c1O[C@H]1C[C@@H](O)C=C[C@@]31CCN(C)C2 [GALANTAMINE]
[2]
  pIC50: < 4.30
[3]
  pIC50: < 4.30
[4]
  pIC50: < 4.30
[5]
  pIC50: < 4.30
[6]
  pIC50: < 4.30
[7]
  pIC50: < 4.30

## O=C1N[C@H]2[C@H](O)[C@H](O)[C@@H](O)[C@H](O)[C@@H]2c2cc3c(c(O)c21)OCO3 [PANCRATISTATIN]
[1]
  pIC50: 7.15

## CN[C@@H]1C[C@H]2O[C@@](C)([C@@H]1OC)n1c3ccccc3c3c4c(c5c6ccccc6n2c5c31)C(=O)NC4 [STAUROSPORINE]
[2]
  pIC50: 7.64

## COc1ccc2c3c1O[C@H]1CC(=O)C=C[C@@]31CCN(C)C2 [NARWEDINE]
[2]
  pIC50: 4.50
[3]
  pIC50: < 4.30
[4]
  pIC50: < 4.30
[5]
  pIC50: < 4.30
[6]
  pIC50: < 4.30
[7]
  pIC50: < 4.30
